The text below walks through data of patent US12344610B2, “APOL1 inhibitors and methods of use” (Maze Therapeutics, Inc., priority 2022, dated 2025).

Usually AC50 stands for the concentration giving half of the maximal activity seen. As a reminder, the EC50 is the midpoint of the concentration-response curve.

Common to all, as to type: cell-based
In one assay the target is T1, APOL1 G2 (Homo sapiens, UniProt O14791, DEL388-389).
T1 construct: expressed in transfected cells; host or cells: HEK293 T-REx clonal line stably expressing GCaMP6f (HEK T-REx/GCaMP6f/APOL1 G2 K6.3), doxycycline induced
T1 sequence (O14791 with tags, fused parts or gaps DEL388-389): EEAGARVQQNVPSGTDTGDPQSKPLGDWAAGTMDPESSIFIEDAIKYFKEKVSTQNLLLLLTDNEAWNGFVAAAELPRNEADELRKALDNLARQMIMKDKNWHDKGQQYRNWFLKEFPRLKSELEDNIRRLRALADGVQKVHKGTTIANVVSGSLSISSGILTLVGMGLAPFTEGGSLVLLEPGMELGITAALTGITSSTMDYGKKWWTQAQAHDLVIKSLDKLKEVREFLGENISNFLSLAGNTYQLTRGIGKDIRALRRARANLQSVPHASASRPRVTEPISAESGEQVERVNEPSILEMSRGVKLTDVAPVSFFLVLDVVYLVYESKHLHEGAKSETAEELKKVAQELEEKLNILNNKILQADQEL
Briefly: APOL1-mediated calcium transport (calcium influx) assay, HEK T-REx/GCaMP6f/APOL1 G2 K6.3 cells, FLIPR TETRA. As to conditions: prevention of calcium influx; geometric mean of at least 2 assay runs; † = average of a technical replicate from a single assay run. In outline:
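A HEK293 T-REx clone stably expressing GCaMP6f had APOL1 G2 induced with doxycycline (20 ng/mL solution added) for 6 h. Cells were then washed into Ca2+-free Tyrode's buffer (pH 7.4) and preincubated with compounds (duplicate 8-point) for 10 min at room temperature. Ca2+ injection to 5 mM final produced FLIPR GCaMP fluorescence, giving AC50 for influx inhibition (geometric mean, ≥2 runs).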

In assay [1] the test system is HEK293 cells overexpressing APOL1 G2. Nature of the assay: APOL1 G2 HEK293 cell rescue assay (reversal of cell death caused by overexpression of APOL1). As to conditions: Homo sapiens, HEK293, HEK293 overexpressing APOL1 G2; geometric mean of at least 2 assay runs; † = single assay run. In outline:
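Each compound tested in duplicate wells on one plate per run, with values usually the geometric mean across at least two runs on different days, occasionally from one run only. Read-out: concentration giving half-maximal rescue of APOL1 G2 overexpression-induced death of HEK293 cells.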

Assay [2] deals with HEK293 clonal cell line overexpressing APOL1 G1. Nature of the assay: APOL1 G1 HEK293 cell rescue assay (Example B3). As to conditions: Homo sapiens, HEK293, HEK293 clonal line overexpressing APOL1 G1; geometric mean of at least 2 runs; † = single run; ¥ = concentration at 50% rescue estimated (no sigmoidal curve). In outline:
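Rescue of cell death caused by APOL1 G1 overexpression was measured in a clonal HEK293 line. Compounds were tested in duplicate on one plate, and EC50s were geometric means across at least two runs on different days. Some values are estimated 50%-rescue concentrations where curve fitting failed.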

`[2H]C([2H])([2H])N1C(=O)C2(CCN(CCOc3cc(F)c4c(c3)CCNS4(=O)=O)CC2)c2cc(Cl)ccc21` [Compound 421, 6-{2-[5-chloro-1-(^2H3)methyl-2-oxo-1,2-dihydrospiro[indole-3,4′-piperidin]-1′-yl]ethoxy}-8-fluoro-3,4-dihydro-2H-1λ^6,2-benzothiazine-1,1-dione]: at APOL1 G2, the AC50 is 564 nM. The EC50 in assay [1] was 34.5 nM; in assay [2], 83.3 nM.

Regarding `[2H]C([2H])([2H])N1C(=O)C2(CCN(CCOc3cnc4c(c3)CCC(=O)N4[C@H]3C[C@@H](O)C3)CC2)c2cc(Cl)ccc21` [Compound 423, 5-chloro-1-(^2H3)methyl-1′-[2-({7-oxo-8-[(cis)-3-hydroxycyclobutyl]-5,6,7,8-tetrahydro-1,8-naphthyridin-3-yl}oxy)ethyl]-1,2-dihydrospiro[indole-3,4′-piperidin]-2-one], at APOL1 G2, the half-maximal activity concentration (AC50) worked out at 284 nM. Moreover, the EC50 in assay [1] is 59.3 nM; in assay [2] it was 116 nM.

Regarding `[2H]C([2H])([2H])N1C(=O)C2(CCN(CCOc3cnc(C4(S(C)(=O)=O)CC4)nc3)CC2)c2cc(Cl)ccc21` [Compound 424, 5-chloro-1′-(2-{[2-(1-methanesulfonylcyclopropyl)pyrimidin-5-yl]oxy}ethyl)-1-(^2H3)methyl-1,2-dihydrospiro[indole-3,4′-piperidin]-2-one], the AC50 on APOL1 G2 amounted to 895 nM. Besides, the 50% effective concentration (EC50) in assay [1] was 50.2 nM; in assay [2] it was 112 nM.

With `[2H]C([2H])([2H])N1C(=O)C2(CCN(CCOc3cnc(C(C)S(C)(=O)=O)nc3)CC2)c2cc(Cl)ccc21` (stereo not drawn) [Compound 425, 5-chloro-1′-(2-{[2-(1-methanesulfonylethyl)pyrimidin-5-yl]oxy}ethyl)-1-(^2H3)methyl-1,2-dihydrospiro[indole-3,4′-piperidin]-2-one], the half-maximal activity concentration (AC50) on APOL1 G2 worked out at 1100 nM. Besides, the EC50 in assay [1] was 90.6 nM; in assay [2] it was 271 nM.

For `O=C1Nc2ccc(Cl)cc2C12CCN(CCOc1cnc(C3(O)COC3)nc1)CC2` [Compound 429, 5-chloro-1′-(2-{[2-(3-hydroxyoxetan-3-yl)pyrimidin-5-yl]oxy}ethyl)-1,2-dihydrospiro[indole-3,4′-piperidin]-2-one], the AC50 on APOL1 G2 is 435 nM. Besides, the concentration for a half-maximal effect (EC50) in assay [1] was 130 nM; in assay [2] it was 200 nM.

For `O=C1Nc2ccc(Cl)cc2C12CCN(CCOc1cnc(C3(O)CCC3)nc1)CC2` [Compound 430, 5-chloro-1′-(2-{[2-(1-hydroxycyclobutyl)pyrimidin-5-yl]oxy}ethyl)-1,2-dihydrospiro[indole-3,4′-piperidin]-2-one], at APOL1 G2, the half-maximal activity concentration (AC50) worked out at 518 nM. Further, the EC50 in assay [1] was 72.9 nM; in assay [2], 123 nM.

For `CC1(O)CN(c2ncc(OCCN3CCC4(CC3)C(=O)Nc3ccc(C#N)cc34)cc2C(F)(F)F)C1` [Compound 431, 1′-(2-{[6-(3-hydroxy-3-methylazetidin-1-yl)-5-(trifluoromethyl)pyridin-3-yl]oxy}ethyl)-2-oxo-1,2-dihydrospiro[indole-3,4′-piperidine]-5-carbonitrile], on APOL1 G2, the AC50 came out at 4870 nM. Also, the EC50 was 18.7 nM in assay [1] and 37 nM in assay [2].

Consider `CC(C)(CO)c1ncc(OCCN2CCC3(CC2)C(=O)Nc2ccc(C#N)cc23)cn1` [Compound 432, 1′-(2-{[2-(1-hydroxy-2-methylpropan-2-yl)pyrimidin-5-yl]oxy}ethyl)-2-oxo-1,2-dihydrospiro[indole-3,4′-piperidine]-5-carbonitrile], for which the half-maximal activity concentration (AC50) on APOL1 G2 is 2560 nM. In addition, the figures for the EC50 in assay [1] and in assay [2] were 161 nM and 288 nM, respectively.

Regarding `C[C@]1(O)C[C@@H](n2cnc3cc(OCCN4CCC5(CC4)C(=O)Nc4ccc(Cl)cc45)cc(C(F)F)c32)C1` [Compound 445, 5-chloro-1′-(2-{[7-(difluoromethyl)-1-[(cis)-3-hydroxy-3-methylcyclobutyl]-1H-1,3-benzodiazol-5-yl]oxy}ethyl)-1,2-dihydrospiro[indole-3,4′-piperidin]-2-one], on APOL1 G2, the concentration at half-maximal activity (AC50) is 1110 nM. The figures for the concentration giving a half-maximal response (EC50) in assay [1] and in assay [2] were 8.15 nM and 29.4 nM, respectively.

For the compound `C[C@]1(O)C[C@@H](n2cnc3cc(OCCN4CCC5(CC4)C(=O)Nc4ccc(C#N)cc45)cc(C(F)F)c32)C1` [Compound 446, 1′-(2-{[7-(difluoromethyl)-1-[(cis)-3-hydroxy-3-methylcyclobutyl]-1H-1,3-benzodiazol-5-yl]oxy}ethyl)-2-oxo-1,2-dihydrospiro[indole-3,4′-piperidine]-5-carbonitrile], at APOL1 G2, the AC50 was determined as 1180 nM. Besides, the values for the EC50 in assay [1] and in assay [2] were 33.2 nM and 82.5 nM, respectively.

`C[C@]1(O)C[C@@H](n2cnc3cc(OCCN4CCC5(CC4)C(=O)Nc4ccc(Cl)cc45)cc(OC(F)F)c32)C1` [Compound 447, 5-chloro-1′-(2-{[7-(difluoromethoxy)-1-[(cis)-3-hydroxy-3-methylcyclobutyl]-1H-1,3-benzodiazol-5-yl]oxy}ethyl)-1,2-dihydrospiro[indole-3,4′-piperidin]-2-one]: the AC50 on APOL1 G2 stood at 1130 nM. Also, the 50% effective concentration (EC50) in assay [1] was 34.1 nM; in assay [2], 64.3 nM.

Regarding `C[C@]1(O)C[C@@H](n2cnc3cc(OCCN4CCC5(CC4)C(=O)Nc4ccc(C#N)cc45)cc(OC(F)F)c32)C1` [Compound 448, 1′-(2-{[7-(difluoromethoxy)-1-[(cis)-3-hydroxy-3-methylcyclobutyl]-1H-1,3-benzodiazol-5-yl]oxy}ethyl)-2-oxo-1,2-dihydrospiro[indole-3,4′-piperidine]-5-carbonitrile], the AC50 on APOL1 G2 amounted to 1140 nM. The concentration for a half-maximal effect (EC50) in assay [1] was 112 nM; in assay [2], 687 nM.

Take `CC(C)(O)c1ncc(OCCN2CCC3(CC2)C(=O)Nc2c(I)cc(Cl)cc23)cn1` [Compound 449, 5-chloro-1′-(2-((2-(2-hydroxypropan-2-yl)pyrimidin-5-yl)oxy)ethyl)-7-iodospiro[indoline-3,4′-piperidin]-2-one]: the AC50 on APOL1 G2 is 609 nM. For the same compound, the EC50 in assay [1] is 102 nM; in assay [2] it was 247 nM.

In the case of `Cc1nc2cc(OCCN3CCC4(CC3)C(=O)Nc3ccc(Cl)cc34)cnc2n1[C@H]1C[C@@](C)(O)C1` [Compound 451, 5-chloro-1′-[2-({2-methyl-3-[(cis)-3-hydroxy-3-methylcyclobutyl]-3H-imidazo[4,5-b]pyridin-6-yl}oxy)ethyl]-1,2-dihydrospiro[indole-3,4′-piperidin]-2-one], the half-maximal activity concentration (AC50) at APOL1 G2 turned out to be 459 nM. For the same compound, the 50% effective concentration (EC50) is 32.1 nM in assay [1] and 115 nM in assay [2].

For the compound `C[C@]1(O)C[C@@H](N2C(=O)NCc3cc(OCCN4CCC5(CC4)C(=O)Nc4ccc(Cl)cc45)cc(C(F)(F)F)c32)C1` [Compound 456, 5-chloro-1′-[2-({2-oxo-1-[(cis)-3-hydroxy-3-methylcyclobutyl]-8-(trifluoromethyl)-1,2,3,4-tetrahydroquinazolin-6-yl}oxy)ethyl]-1,2-dihydrospiro[indole-3,4′-piperidin]-2-one], the half-maximal activity concentration (AC50) at APOL1 G2 stood at 1010 nM. The EC50 in assay [1] is 28.2 nM; in assay [2], 98.2 nM.

Regarding `CC1(C)OC(=O)c2cc(OCCN3CCC4(CC3)C(=O)Nc3ccc(Cl)cc34)cnc21` [Compound 458, 5-chloro-1′-[2-({7,7-dimethyl-5-oxo-5H,7H-furo[3,4-b]pyridin-3-yl}oxy)ethyl]-1,2-dihydrospiro[indole-3,4′-piperidin]-2-one], the AC50 on APOL1 G2 worked out at 528 nM. Besides, the figures for the EC50 in assay [1] and in assay [2] were 16.5 nM and 75.7 nM, respectively.

On to `[2H]C([2H])(Oc1cnc2c(c1)CCC(=O)N2[C@H]1C[C@](O)(C([2H])([2H])[2H])C1)C([2H])([2H])N1CCC2(CC1)C(=O)Nc1ccc(Cl)cc12` [Compound 462, 5-chloro-1′-[2-({7-oxo-8-[(cis)-3-hydroxy-3-(^2H3)methylcyclobutyl]-5,6,7,8-tetrahydro-1,8-naphthyridin-3-yl}oxy)(1,1,2,2-^2H4)ethyl]-1,2-dihydrospiro[indole-3,4′-piperidin]-2-one], for which the AC50 at APOL1 G2 is 943 nM. Besides, the results for the concentration giving a half-maximal response (EC50) in assay [1] and in assay [2] were 17.8 nM and 53.4 nM, respectively.

For the compound `[2H]C([2H])(Oc1cc(C(F)(F)F)c2c(c1)ncn2[C@H]1C[C@@](C)(O)C1)C([2H])([2H])N1CCC2(CC1)C(=O)Nc1ccc(Cl)cc12` [Compound 463, 5-chloro-1′-[2-({1-[(cis)-3-hydroxy-3-methylcyclobutyl]-7-(trifluoromethyl)-1H-1,3-benzodiazol-5-yl}oxy)(1,1,2,2-^2H4)ethyl]-1,2-dihydrospiro[indole-3,4′-piperidin]-2-one], the half-maximal activity concentration (AC50) on APOL1 G2 came out at 2840 nM. The concentration giving a half-maximal response (EC50) was 5.84 nM in assay [1] and 13.2 nM in assay [2].
